The text below walks through data of ChEMBL document CHEMBL1148805 (J Med Chem, 2007).

Activity calls are given as the source filed them. The calls are words filed in the database; no cut-off is given here.

The target in series [1] is Aldo-keto reductase family 1 member B1 (Rattus norvegicus, UniProt P07943).
Description: Inhibition of ALR2 in Sprague-Dawley Albino rat lens
Series [2] has as its target Aldo-keto reductase family 1 member A1 (Rattus norvegicus, UniProt P51635).
Description: Inhibition of ALR1 in Sprague-Dawley Albino rat kidney
Series [3] deals with Brain. Briefly: tissue or blood. The following applies: Rattus norvegicus, Sprague-Dawley Albino.
In series [4] the test system is Brain. Briefly: tissue or blood. The following applies: Rattus norvegicus, Sprague-Dawley Albino. This is another data set of the same source.
Series [5] has as its system Brain. The settings on record: Rattus norvegicus, Sprague-Dawley Albino, 10 uM.

Chain of Aldo-keto reductase family 1 member A1 (P51635 whole entry, looked up): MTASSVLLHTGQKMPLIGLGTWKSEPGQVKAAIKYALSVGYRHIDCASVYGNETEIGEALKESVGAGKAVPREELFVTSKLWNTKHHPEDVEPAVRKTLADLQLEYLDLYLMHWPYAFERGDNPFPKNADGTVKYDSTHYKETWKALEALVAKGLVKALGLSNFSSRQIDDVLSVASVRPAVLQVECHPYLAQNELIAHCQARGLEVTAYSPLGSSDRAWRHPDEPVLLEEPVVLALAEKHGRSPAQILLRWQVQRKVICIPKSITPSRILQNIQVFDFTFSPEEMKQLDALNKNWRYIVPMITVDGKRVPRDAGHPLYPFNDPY
Description for physchem: Acid dissociation constant, pKa of the compound

Take `COc1ccc(-c2cc(=O)n3c(O)cccc3n2)cc1`: the IC50 – broadly, the concentration at which inhibition is half-maximal – in series [1] was 0.74 µM; in series [2], above 10 µM. Moreover, the inhibition (usually the change of the read-out against control, counted positive when it falls) at 100 µM in the series on Brain [3] was determined as 82.8%. The compound also returned an inhibition at 10 µM in the series on Brain [4] of 50.4%.
Turning to `O=c1cc(Cc2ccc(O)cc2)nc2cccc(O)n12`, the IC50 in series [1] was 44 µM; in series [2] it was above 10 µM. For the same compound, in the series with Brain [3], at 100 µM the inhibition was 51.4%. In the series with Brain [4], the inhibition at 10 µM came to 11.5%.
On to `COc1ccc(-c2cc(=O)n3cccc(O)c3n2)cc1`, for which the IC50 in series [1] and in series [2] was above 10 µM each time. The inhibition at 100 µM in the series on Brain [3] is 11.5%. Moreover, in the series on Brain [4], 10 µM produced 3.4% inhibition.
Regarding `O=c1cc(-c2ccccc2)nc2ccccn12`, the concentration for half-maximal inhibition (IC50) in series [1] and in series [2] was above 10 µM each time. Moreover, in the series on Brain [3], the inhibition at 100 µM came to 22.4%. For the same compound, the inhibition at 10 µM in the series with Brain [4] was 10.8%.
Consider `O=c1cc(-c2ccc(O)c(O)c2)nc2c(O)cccn12`, for which the half-maximal inhibitory concentration (IC50) in series [1] is 0.45 µM; in series [2], above 10 µM. Besides, in the series on Brain [3], testing at 100 µM gave an inhibition of 81.5%. Further, in the series with Brain [4], the inhibition at 10 µM amounted to 48.2%.
Regarding `COc1ccc(-c2cc(=O)n3cccc(O)c3n2)cc1OC`, the IC50 in series [1] and in series [2] was above 10 µM in each case. Moreover, at 100 µM the inhibition in the series on Brain [3] was 8.8%. Moreover, 10 µM produced 1.2% inhibition in the series with Brain [4].
`COc1ccc(Cc2cc(=O)n3c(O)cccc3n2)cc1OC`: the IC50 in series [1] and in series [2] was above 10 µM in each case. This compound also returned an inhibition at 100 µM with Brain [3] of 45.1%. In the series on Brain [4], this compound showed an inhibition at 10 µM of 25.8%.
Regarding `O=c1cc(-c2ccccc2)nc2c(O)cccn12`, the IC50 in series [1] and in series [2] was above 10 µM in each case. Moreover, in “physchem”, the pKa (as a rule, the pH at which an ionisable group is half protonated) worked out at 10.2. In addition, the inhibition at 100 µM in the series with Brain [3] turned out to be 11.9%. Moreover, at 10 µM the inhibition in the series with Brain [4] was 5.9%.
Take `O=c1cc(Cc2ccccc2)nc2cccc(O)n12`: the IC50 is 55 µM in series [1] and above 10 µM in series [2]. The compound further displayed an inhibition at 100 µM in the series on Brain [3] of 45.7%. This compound also had an inhibition at 10 µM with Brain [4] of 19.3%.
In the same order, the values of `O=c1cc(-c2ccc(O)cc2)nc2c(O)cccn12` are 2.07 µM, above 10 µM, 43.2% and 11.8%.
Take `O=c1cc(-c2ccc(O)c(O)c2)nc2ccccn12`: the IC50 was 0.67 µM in series [1] and above 10 µM in series [2]. Moreover, the pKa in “physchem” came to 6.8. Further, testing at 100 µM with Brain [3] gave an inhibition of 71.6%. In the series with Brain [4], this compound returned an inhibition at 10 µM of 26.6%.
For the compound `COc1ccc(-c2cc(=O)n3ccccc3n2)cc1`, the IC50 in series [1] and in series [2] was above 10 µM in each case. In the series with Brain [3], the inhibition at 100 µM is 15.1%. The same compound had an inhibition at 10 µM in the series with Brain [4] of 8.3%.
Regarding `O=c1cc(Cc2ccc(O)c(O)c2)nc2cccc(O)n12`, the figures for the half-maximal inhibitory concentration (IC50) in series [1] and in series [2] were 12 µM and above 10 µM, respectively. The compound further had an inhibition at 100 µM with Brain [3] of 89.9%. 10 µM produced 56.7% inhibition with Brain [4].
For `O=c1cc(-c2ccc(O)cc2)nc2cccc(O)n12`, in that order: 0.42 µM, above 10 µM, 42.4% and 21.2%.
In the same order, the values of `COc1ccc(Cc2cc(=O)n3c(O)cccc3n2)cc1` are above 10 µM, above 10 µM, 42.4% and 18.9%.
As to `COc1ccc(-c2cc(=O)n3c(O)cccc3n2)cc1OC`, the IC50 in series [1] is 100 µM; in series [2], above 10 µM. Moreover, in the series on Brain [3], at 100 µM the inhibition was 64.7%. Moreover, 10 µM produced 28.5% inhibition with Brain [4].
`O=c1cc(-c2ccc(O)cc2)nc2ccccn12`: the IC50 is 4.56 µM in series [1] and above 10 µM in series [2]. Moreover, the pKa in the series “physchem” was 7.6. In the series with Brain [3], this compound came in with an inhibition at 100 µM of 23.7%. The outcome in the series with Brain [5] was inactive.
As to `Cc1c(C)c2c(c(C)c1O)CC[C@@](C)(CCCC(C)CCCC(C)CCCC(C)C)O2` (single isomer, unassigned) [ALPHA-TOCOPHEROL], at 100 µM the inhibition with Brain [3] was 18.2%.
Take `O=c1cc(-c2ccc(O)c(O)c2)nc2cccc(O)n12`: the results for the IC50 in series [1] and in series [2] were 0.1 µM and above 10 µM, respectively. In addition, the inhibition at 100 µM in the series on Brain [3] was found to be 85.9%. In addition, 10 µM produced 66.5% inhibition in the series with Brain [4].
For `CC(=O)N(O)CCCCCNC(=O)CCC(=O)N(O)CCCCCNC(=O)CCC(=O)N(O)CCCCCN` [DEFEROXAMINE], 100 µM produced 72% inhibition in the series with Brain [3].
As for `COc1ccc(-c2cc(=O)n3ccccc3n2)cc1OC`, the IC50 in series [1] and in series [2] was above 10 µM throughout. Moreover, the inhibition at 100 µM in the series on Brain [3] was 18.8%. For the same compound, the result in the series with Brain [5] was inactive.
